Laboratory results as given in patent US20110262502A1, “PULMONARY DELIVERY OF 17-HYDROXYPROGESTERONE CAPROATE (17-HPC)” (Prairie Pharmaceuticals LLC, priority 2010, published 2011).
Like-named read-outs stand apart in the source and are kept apart here. One block for each compound: values may come before it.

Columns and labels:
[1] = API particle size distribution (Dv(10), Dv(50), Dv(90), Span); type: physicochemical
From the text: In determining and characterizing particle size, e.g., particle size of an API (active pharmaceutical ingredient), the particle size parameters Dv(10), Dv(50) and Dv(90) may be used. Particle size measurements are preferably expressed in terms of Dv(10), Dv(50), and Dv(90), wherein Dv(10) refers to the particle size below which 10% of the volume of material exists; Dv(50) refers to the particle size below which 50% of the volume of material exists; and Dv(90) refers to the particle size below which 90% of the volume of material exists.
Referring to Table 5, experiments were performed with a suspension comprising the active pharmaceutical ingredient (the API), i.e., 17-HPC was the API in these experiments, wherein 17-HPC was present at approximately five percent (5%) w/w in water; and the suspension also comprised the surfactant Tween 80 at approximately 15% in these experiments (processing conditions conducted at Pressure=90 bar). […] Particle size measurements are expressed in terms of Dv(10), Dv(50), and Dv(90), wherein Dv(10) refers to the particle size below which 10% of the volume of material exists; Dv(50) refers to the particle size below which 50% of the volume of material exists; and Dv(90) refers to the particle size below which 90% of the volume of material exists). […]
Exemplary particle size reduction experiments, and characterization of API (i.e., 17-HPC) particle size distribution, using a suspension prepared without a surfactant. Referring to Table 7, particle size reduction of 17-HPC was observed without using any surfactant. Experiments were performed with a suspension comprising the active pharmaceutical ingredient (the API), i.e., 17-HPC in these experiments, in water and without a surfactant. FIG. 16 depicts an exemplary API particle size distribution profile (17-HPC is the active ingredient) after a spray-drying (SD) process. Referring again to FIG. 16, and also to Table 7, an exemplary 17-HPC particle size distribution profile was obtained after approximately 10 to 55 cycles of milling. API particle size was measured after spray drying (SD). Particle size measurements are expressed in terms of Dv(10), Dv(50), and Dv(90), wherein Dv(10) refers to the particle size below which 10% of the volume of material exists; Dv(50) refers to the particle size below which 50% of the volume of material exists; and Dv(90) refers to the particle size below which 90% of the volume of material exists).

[2] = Dynamic vapor sorption (DVS) of 17-HPC powder; type: physicochemical; conditions: FIG. 18; increasing percent relative humidity
Experimental: Dynamic vapor sorption (DVS) is a gravimetric technique that measures how quickly and how much of a solvent is absorbed by a sample, such as a dry powder absorbing water. DVS accomplishes this by varying the vapor concentration surrounding the sample and measuring the change in mass which this produces.
Analysis of 17-HPC dry powder (obtained after particle size reduction and spray drying or SD) was performed. FIG. 18 depicts exemplary results from a dynamic vapor sorption (DVS) analysis of a dry powder obtained after a spray-drying (SD) process. One particular batch (PGC2011-020PD) was selected to be analyzed by DVS. […] There was no substantive change in adsorption or desorption even with conditions of increasing percent relative humidity. Referring to FIG. 19, exemplary results are shown of XRPD analysis of a 17-HPC dry powder obtained after particle size reduction and a spray-drying (SD) process. One particular batch (PGC2011-020PD) was selected to be analyzed by XRPD.

[3] = test system: PHA-induced IL-2 release in IL-2 and IL-4 treated (steroid resistant) PBMCs; test: IL-2/IL-4 induced steroid resistance model in PBMCs: dexamethasone inhibition of PHA-induced IL-2 release; type: cell-based, human
Experimental: J Immunol 2009; 183; 164-171). […] Following PBMCs stimulation with mitogen phytohaemagglutinin (PHA), there is a strong correlation between cytokine secretion levels and steroid resistance as well as steroid sensitivity in vitro. Addition of IL-2, IL-4 and TNF-reduce steroid sensitivity.
(§1) PBMCs (2×10^6) were incubated with or without IL-2 (13 ng/ml) and IL-4 (6.5 ng/ml) for 48 hours in RPMI-1640 medium containing 10% FCS and 2 mM glutamine. […] IL-2 and IL-4 stimulated PBMCs were also plated at a concentration of 10^6 cells/ml in 96-well plates ready for PHA (15 μg/mL, 24 hours) stimulation of cytokine release and detection by ELISA.
IL-2/4 induced steroid resistance in PBMCs, a well-recognized study model, was used to evaluate potential modifiers of steroid resistance and sensitivity. PBMCs from healthy smokers were collected. Corticosteroid insensitivity or resistance was induced by adding IL-2 and IL-4 in peripheral blood mononuclear cells (PBMCs) from healthy male smokers (n=˜11). […] IL-2 levels were quantified using ELISA.
J Immunol 2009; 183; 164-171).
(§2) IL-2 levels were quantified using ELISA.

[4] = test system: PHA-induced IL-2 production in PBMCs; test: PHA-induced IL-2 production in PBMCs from healthy male smokers (no IL-2/IL-4 added), ELISA; type: cell-based, human; conditions: for levels of IL-2 in PBMCs: FIG. 1, PHA; for % inhibition of PHA stimulation of IL-2: Table 2
Experimental: PBMCs were isolated from human blood buffy coats provided by a regional blood center. Random buffy coat cells from male donors were a by-product of blood processed for clinical use and no details (i.e., personal identification and background) were provided except for tobacco use. […] PBMCs were separated using a porous high density polyethylene barrier (HISTOPAQUE from GEHealthcare Bio-Sciences AB (US). After centrifugation of blood samples in each tube (35 minutes at 800×g at room temperature, or RT), PBMCs were collected and washed twice with Hank's buffered saline solution (HBSS). PBMCs were resuspended in RPMI-1640 medium containing 10% fetal calf serum (FCS) and 15 mM glutamine and cells were counted and plated.
as §1
Serial dilutions of standards and PBMCs' supernatants were measured by enzyme linked immunosorbent assay to determine IL-2 at baseline and its levels after 17HPC, P4 and MAP treatments. Optical density was measured at 450 nm and corrected with 550 nm. The concentration of TL-2 was calculated using the standard curve and taking into account the supernatant dilution used. Detection limit for IL-2 is 4.0 pg/ml.
Data are expressed as mean±SD. The efficacies of the drug treatments were analyzed by paired t-test. One-way analysis of variance was used to compare three or more matched groups and 95% CI was performed to present groups differences. All graphs indicate mean values of results or % inhibition of PHA-stimulated IL-2. IC50 values were calculated by using a sigmoidal model (BioDataFit). A p value <0.05 was considered statistically significant.
as §2
IL-2 levels were quantified using ELISA. IC50 values were calculated by using a sigmoidal model (BioDataFit).
as §2, §2, §2

[5] = Table 7, powders after spray drying, bulk material for comparison
[6] = Homo sapiens, PBMC, read-out: % inhibition on PHA-induced IL-2 production
[7] = Example 8, Dexamethasone only 10E−6M
[8] = Example 8, Dexamethasone only 10E−8M
[9] = Example 8, Dexamethasone only 10E−11M

Particle Size Dv(10) ([1]; Table 5, bulk material): 6.345 μm | Particle Size Dv(50) ([1]; Table 5, bulk material): 56.762 μm | Particle Size Dv(90) ([1]; Table 5, bulk material): 307.607 μm | Particle Size Span ([1]; Table 5, bulk material): 5.307 | API particle size after SD (powders) Dv(10) [1, 5]: 2.398 μm | API particle size after SD (powders) Dv(50) [1, 5]: 23.610 μm | API particle size after SD (powders) Dv(90) [1, 5]: 98.799 μm | API particle size after SD (powders) Span [1, 5]: 4.083
Compound: CCCCCC(=O)O[C@]1(C(C)=O)CC[C@H]2[C@@H]3CCC4=CC(=O)CC[C@]4(C)[C@H]3CC[C@@]21C [Bulk material]
water uptake in DVS (percent change in weight vs RH %) [2]: neither the obtained powders nor the bulk material gained any measurable quantity of water

Compound: C[C@@H]1C[C@H]2[C@@H]3CCC4=CC(=O)C=C[C@]4(C)[C@@]3(F)[C@@H](O)C[C@]2(C)[C@@]1(O)C(=O)CO [Dexamethasone]
% inhibition on PHA-induced IL-2 production ([3]; FIG. 2, Dexamethasone 10^−10 M, with addition of IL-2 and IL-4): no inhibition | PHA-induced IL-2 level ([3]; FIG. 5, Dexamethasone 10^−10 M without 17HPC): 2364 pg/mL | inhibition at 1 µM [3, 6]: 21% | % inhibition of PHA-induced IL-2 production [4, 7]: (86%) | mean IL-2 [4, 7]: 109.6 pg/mL | % inhibition of PHA-induced IL-2 production [4, 8]: 67% | mean IL-2 [4, 8]: 251.6 pg/mL | % inhibition of PHA-induced IL-2 production [4, 9]: (72%) | mean IL-2 [4, 9]: 216.1 pg/mL | levels of IL-2 in PBMCs ([4]; dex 10^−8M, n=17, mean±SD): 293 ± 338 pg/mL | levels of IL-2 in PBMCs ([4]; dexamethasone 10^−6M, n=17, mean±SD): 144 ± 157 pg/mL | levels of IL-2 in PBMCs ([4]; dexamethasone 10^−10 M, n=14, mean±SD): 287 ± 313 pg/mL | levels of IL-2 in PBMCs ([4]; dexamethasone 10^−12 M, n=11, mean±SD): 371 ± 447 pg/mL | inhibition at 1 µM ([4]; Homo sapiens, PBMC): 87% | IC50 ([4]; Homo sapiens, PBMC, Dexamethasone+17HPC at lower 17HPC concentrations, read-out: Dexamethasone-IC50): 0.001 to 0.0631 nM | IC50 ([4]; Homo sapiens, PBMC, read-out: Dexamethasone IC50, Dexamethasone only, sigmoidal model, N=14): 31.6 nM | IC50 ([4]; Homo sapiens, PBMC, read-out: Dexamethasone IC50, with 17HPC 10^−5M add-on): 25.4 nM | IC50 ([4]; Homo sapiens, PBMC, read-out: Dexamethasone IC50, with 17HPC 10^−10M add-on): 0.0627 nM | inhibition at 0.0001 µM [4, 6]: 52% | mean IL-2 ([4]; Table 1, Dexamethasone only 10^−6M): 160.6 pg/mL | mean IL-2 ([4]; Table 1, Dexamethasone only 10^−8M): 398.1 pg/mL | mean IL-2 ([4]; Table 1, Dexamethasone only 10^−10M): 312.7 pg/mL | mean IL-2 ([4]; Table 1, Dexamethasone only 10^−12M): 371.7 pg/mL | % inhibition of PHA stimulation of IL-2 ([4]; Dexamethasone only 10^−6 M (Imax)): 78% | % inhibition of PHA stimulation of IL-2 ([4]; Dexamethasone only 10^−8 M): 46% | % inhibition of PHA stimulation of IL-2 ([4]; Dexamethasone only 10^−10 M): 57% | % inhibition of PHA stimulation of IL-2 ([4]; Dexamethasone only 10^−12 M): 49% | effect in basal IL-2 level ([4]; no PHA stimulation, data not shown): no significant effect
